Test results as given in patent publication US20060058379A1, “Connexin 26 inhibitor and cancer metastasis inhibitors” (priority 2002, published 2006).
“Also recorded” adds a separate entry of the source.

Tests used:
[1] = molecular target: T1, connexin 26 (Rattus norvegicus, UniProt P21994); test: Dye-transfer assay (GJIC) in HeLa-Cx26 cells; type: cell-based; conditions: HeLa-Cx26, calcein/DiI dye transfer, FIG. 1
T1 construct: expressed in transfected cells; host or cells: HeLa (human cervical carcinoma) subclone HeLa-Cx26
Source text: The connexin 26 inhibitory activity can be evaluated with dye-transfer assay, for example. Specifically, a gap junction level (GJIC score) against the connexin 26 is used for evaluation (c.f. Japanese Laid-Open Patent Publication No. 17184/2001, “Tokukai 2001-17184, publication date: Jan. 23, 2001, and M. Mensil et al. Cancer Res. Vol 55, 629-639 1995.).
With this method, labelling dye, which can be transferred to outside of cells only through the gap junctions, is introduced into cells. Then the cells are smeared on a monolayer culture or a tissue culture. […]
GJIC score can be calculated as described in following examples. That is, if no dye-coupling occurs with respect to the donor cells, “0” is scored; “1” is scored if dye-coupling from the donor cell to an adjacent receptive cell occurs; and “2” is scored if dye-coupling from the donor cell to a second adjacent cell occurs. In this manner, when dye-coupling to n^th adjacent cell from the donor cell occurs, “n” (an integer) is scored. […]
(§1) Cells containing the gap junction-impermeable DiI (red fluorescence) were identified as donor cells. […]
The level of gap junction cell-to-cell communication (GJIC) was scored by the following methods. […]

[2] = molecular target: T2, connexin 43 (Rattus norvegicus, UniProt P08050); test: Dye-transfer assay (GJIC) in HeLa-Cx43 cells; type: cell-based; conditions: HeLa-Cx43, calcein/DiI dye transfer, FIG. 1
T2 construct: contained a cDNA fragment of an entire coding region of rat Cx43; expressed in transfected cells; host or cells: HeLa cells stably transfected with pCX4bsr-Cx43 (clone HeLa-Cx43)
Source text: A pCX4bsr vector was derived from the pCXbsr vector (T Akagi., et al., 2000, Proc. Natl. Acad. Sci. USA) with minor modification. The pCX4bsr vector was kindly given by Dr. T Akagi (Osaka Bioscience Institute, Osaka, Japan). The pBluescriptII SK+plasmid vector contained a cDNA fragment of an entire coding region of rat Cx43 between the Spel and ClaI sites, and was constructed previously (Y. Omori., et al., 1998, Int. J. Cancer). The Cx43cDNA was excised by digesting NotI and HincII, and being ligated with the pCX4bsr where NotI and HincII were digested. HeLa cells were transfected with the resulting pCX4bsr-Cx43 vector by using the TransFast transfection regent. […]
as §1
The level of gap junction cell-to-cell communication (GJIC) was scored by the following methods.
Donor cells were scored as 0 for no dye-coupling, as 1 for dye-coupling from a donor cell to an adjacent recipient cell, and as 2 or 3 when calcein transferred to the adjacent recipient cell further transfers to a second or a third adjacent cell, subsequently, in a direction away from the donor cell. […] The experiments were repeated three times and mean and standard deviation of score counts were calculated for each factor. […]

[3] = tested on: BL6 cells (substrains of B16 mouse melanoma cells); test: Cancer metastasis inhibitory action test 1: spontaneous lung metastasis after subcutaneous BL6 inoculation; type: in vivo; conditions: C57B1/6 mice; for metastasized tubercles in lungs (number of foci) vs vehicle group: counted four weeks after dismembering
Description: The mice were treated in the above manners on consecutive days after the BL6 cells inoculation. Then, on about 18th day, tumors (about six mm in diameter) formed at inoculation points were removed by dismembering at knee joints. Then the mice were treated in the above manners for another two days after the dismembering. After that, the mice were fed without the treatments. At four weeks after the dismembering at the knee joints, the mice were euthanized, and metastasized tubercles in both left and right lungs (the number of focuses) were counted visually (refer to FIG. 2 (a) through (c) and FIG. 3). Cancer metastasis inhibitory action was evaluated using 10 mice for each group.

[4] = tested on: BL6 cells (substrains of B16 mouse melanoma cells); test: Cancer metastasis inhibitory action test 2: spontaneous lung metastasis after subcutaneous BL6 inoculation; type: in vivo; conditions: C57B1/6 mice, counted four weeks after dismembering
Description: After subcutaneously inoculating 1×10^5 BL6 cells (substrains of B16 mouse melanoma cells) to a planter of each C57B1/6 mouse, the mice were classified into three groups. • 1) Control mice (Nt) with no treatment but transplanting […]; • 2) Oleamide (25 mg/kg/day) administration group: peritoneal injection of olive oil 0.2 ml dissolved with oleamide at concentration of 25 mg/kg/day once a day on consecutive days; and • 3) MI-18 (10 mg/kg/day) administration group: olive oil 0.2 ml dissolved with MI-18 at concentration of 10 mg/kg/day once a day on consecutive days.
The mice were treated in the above manners every day after the BL6 cells inoculation. Then, on about 18th day, tumors (about eight mm radical) formed at the injected points were removed by dismembering at knee joints. Then the mice were treated in the above manners for another two days after the dismembering. After that, mice were fed without the treatments. At four weeks after dismembering at the knee joints, the mice were euthanized, and metastasized tubercles in both left and right lungs (the number of focuses) were counted visually (refer to FIG. 2 (a) through (c) and FIG. 3). Cancer metastasis inhibitory action was evaluated using 15 mice for each group. […] Therefore, these materials are highly safe. […]

[5] = Death of mice due to causes other than cancer under daily administration (Example 5); type: in vivo, mouse; conditions: C57B1/6 mice, approximately two months, FIG. 5

T2 sequence (P08050 2-382): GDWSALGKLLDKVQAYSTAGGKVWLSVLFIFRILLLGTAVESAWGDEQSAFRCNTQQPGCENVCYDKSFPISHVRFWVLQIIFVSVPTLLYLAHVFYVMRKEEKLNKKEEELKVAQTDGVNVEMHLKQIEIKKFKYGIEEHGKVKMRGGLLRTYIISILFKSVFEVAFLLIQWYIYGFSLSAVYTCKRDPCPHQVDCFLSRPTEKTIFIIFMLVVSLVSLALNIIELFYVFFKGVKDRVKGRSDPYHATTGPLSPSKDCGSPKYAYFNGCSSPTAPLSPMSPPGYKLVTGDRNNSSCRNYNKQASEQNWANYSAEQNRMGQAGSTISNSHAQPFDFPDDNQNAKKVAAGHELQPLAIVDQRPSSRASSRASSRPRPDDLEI

| Structure (SMILES) | inhibitory activity against connexin 26 (gap junction dye-coupling) [1] | inhibitory activity against connexin 43 (gap junction dye-coupling) [2] | metastasized tubercles in lungs (number of foci) vs vehicle group ([3]; 25 mg/kg/day peritoneal injection twice a day) | metastasized tubercles in lungs (number of foci) vs vehicle group ([3]; 50 mg/kg/day twice a day) | metastasized tubercles in lungs (number of foci) ([3]; 500 mg/kg/day, FIG. 2 (d)) | metastasized tubercles in lungs (number of foci) vs untreated group ([4]; 25 mg/kg/day peritoneal injection once a day) | death of mice due to causes other than cancer ([5]; 25 mg/kg/day every day, 25 mg/kg/day) | metastasized tubercles in lungs (number of foci) vs untreated group ([4]; 10 mg/kg/day once a day) | death of mice due to causes other than cancer ([5]; 10 mg/kg/day every day) |
| --- | --- | --- | --- | --- | --- | --- | --- | --- | --- |
| CCCCCCCC/C=C\CCCCCCCC(N)=O [oleamide, 9(Z)-Octadecenamide] | exhibited inhibitory action; also recorded: exhibits inhibitory activity | exhibited inhibitory action | fewer metastasized tubercles and significantly exhibited cancer metastasis inhibitory action | fewer metastasized tubercles and significantly exhibited cancer metastasis inhibitory action | the similar result was obtained | fewer metastasized tubercles and significantly exhibited cancer metastasis inhibitory activity | death rates due to causes other than cancer were low; also recorded: no mice died due to other causes but cancer | – | – |
| CCCCCCCC[C@H]1O[C@H]1CCCCCCCC(N)=O (relative stereo) [MI-18, 8-[(2S*3R*)-3-octyloxirane-2-yl]octanamide] | exhibits inhibitory activity | specifically inhibits only connexin 26 | – | – | – | – | – | fewer metastasized tubercles and significantly exhibited cancer metastasis inhibitory activity | no mice died due to other causes but cancer |
